Consider 8 molecules from article PMC5843810, “18th European Symposium on Radiopharmacy and Radiopharmaceuticals” (EJNMMI Radiopharmacy and Chemistry, 2016).

Read-outs that look alike come from different tables or passages of the source. Where a SMILES comes first, the peptide text is derived from it. Bridges are numbered along the chain shown (N, C = ends). [ ]: non-standard residue; d: D form. Ahx = NCCCCCC(=O)O; βAla = NCCC(=O)O

In data set [1] the test system is human breast cancer cell lines. Also on record: method as in not given. As to conditions: ref not given; cited from earlier work. An excerpt:
Introduction: Substituted benzotiazoles (BT) are a class of compounds with high affinity and selectivity to aryl hydrocarbon receptor (AhR), a receptor often expressed in breast cancer tissue.

The target of data set [2] is T1, HDAC6 (Homo sapiens, UniProt Q9UBN7).
T1 construct: wild-type Wistar rat brain tissue and PC3/LNCaP prostate tumor slices; from tissue; host or cells: PC3 and LNCaP prostate tumour slices (xenografts)
T1 sequence (Q9UBN7 1-1215): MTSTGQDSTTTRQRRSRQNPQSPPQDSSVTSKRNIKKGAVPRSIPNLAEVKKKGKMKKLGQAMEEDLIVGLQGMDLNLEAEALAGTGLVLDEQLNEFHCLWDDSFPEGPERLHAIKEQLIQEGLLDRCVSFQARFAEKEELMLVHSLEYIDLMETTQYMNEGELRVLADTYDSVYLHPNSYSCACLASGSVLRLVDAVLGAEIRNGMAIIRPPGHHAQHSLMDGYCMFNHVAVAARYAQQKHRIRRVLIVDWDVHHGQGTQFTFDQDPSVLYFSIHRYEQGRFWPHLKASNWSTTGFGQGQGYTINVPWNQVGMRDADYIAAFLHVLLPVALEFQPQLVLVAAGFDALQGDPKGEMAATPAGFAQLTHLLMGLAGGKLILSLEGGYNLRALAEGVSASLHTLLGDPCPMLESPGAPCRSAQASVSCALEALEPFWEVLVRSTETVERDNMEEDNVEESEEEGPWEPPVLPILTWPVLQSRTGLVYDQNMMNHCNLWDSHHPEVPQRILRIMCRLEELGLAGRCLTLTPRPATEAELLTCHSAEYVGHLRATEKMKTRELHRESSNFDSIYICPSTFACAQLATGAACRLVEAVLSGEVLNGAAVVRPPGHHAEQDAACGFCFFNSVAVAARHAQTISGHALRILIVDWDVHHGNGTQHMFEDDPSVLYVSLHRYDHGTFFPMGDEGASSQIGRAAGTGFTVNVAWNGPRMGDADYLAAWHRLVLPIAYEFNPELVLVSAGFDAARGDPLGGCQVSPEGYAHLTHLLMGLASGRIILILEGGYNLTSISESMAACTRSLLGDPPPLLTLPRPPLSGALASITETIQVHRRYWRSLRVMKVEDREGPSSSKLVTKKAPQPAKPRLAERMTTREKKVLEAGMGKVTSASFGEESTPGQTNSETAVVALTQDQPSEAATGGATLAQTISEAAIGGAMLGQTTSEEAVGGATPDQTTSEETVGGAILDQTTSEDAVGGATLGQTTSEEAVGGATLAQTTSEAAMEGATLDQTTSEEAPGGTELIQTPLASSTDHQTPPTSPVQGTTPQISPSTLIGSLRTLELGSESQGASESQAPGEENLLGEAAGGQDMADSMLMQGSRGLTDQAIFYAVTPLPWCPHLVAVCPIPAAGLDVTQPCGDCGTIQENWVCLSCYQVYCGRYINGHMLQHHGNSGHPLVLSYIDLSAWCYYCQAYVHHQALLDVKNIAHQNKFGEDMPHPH
The experiment in a line: Autoradiography on PC3/LNCaP prostate tumor slices. Format: binding. As to conditions: 100 μM. The procedure: (§1) The biodistribution was studied in NMRI-mice at 2, 10, 30 and 60 min (n = 3/time point) post injection (p.i.). Organs and tissues were harvested and radioactivity was counted in a gamma-counter. […] Slices were incubated with 18.5 MBq/400μL (brain) or 18.5 MBq/250 μL (tumor) of tracer with/without 100 μM of cold authentic reference compound (KB631) or non-structural related pan-HDAC inhibitor Suberoylanilide hydroxamic acid (SAHA).

Data set [3] deals with T2, HDAC6 (Rattus norvegicus, UniProt A0A8I6GM68).
T2 construct: wild-type Wistar rat brain tissue; from tissue; host or cells: wild-type Wistar rat brain slices
T2 sequence (A0A8I6GM68 whole entry): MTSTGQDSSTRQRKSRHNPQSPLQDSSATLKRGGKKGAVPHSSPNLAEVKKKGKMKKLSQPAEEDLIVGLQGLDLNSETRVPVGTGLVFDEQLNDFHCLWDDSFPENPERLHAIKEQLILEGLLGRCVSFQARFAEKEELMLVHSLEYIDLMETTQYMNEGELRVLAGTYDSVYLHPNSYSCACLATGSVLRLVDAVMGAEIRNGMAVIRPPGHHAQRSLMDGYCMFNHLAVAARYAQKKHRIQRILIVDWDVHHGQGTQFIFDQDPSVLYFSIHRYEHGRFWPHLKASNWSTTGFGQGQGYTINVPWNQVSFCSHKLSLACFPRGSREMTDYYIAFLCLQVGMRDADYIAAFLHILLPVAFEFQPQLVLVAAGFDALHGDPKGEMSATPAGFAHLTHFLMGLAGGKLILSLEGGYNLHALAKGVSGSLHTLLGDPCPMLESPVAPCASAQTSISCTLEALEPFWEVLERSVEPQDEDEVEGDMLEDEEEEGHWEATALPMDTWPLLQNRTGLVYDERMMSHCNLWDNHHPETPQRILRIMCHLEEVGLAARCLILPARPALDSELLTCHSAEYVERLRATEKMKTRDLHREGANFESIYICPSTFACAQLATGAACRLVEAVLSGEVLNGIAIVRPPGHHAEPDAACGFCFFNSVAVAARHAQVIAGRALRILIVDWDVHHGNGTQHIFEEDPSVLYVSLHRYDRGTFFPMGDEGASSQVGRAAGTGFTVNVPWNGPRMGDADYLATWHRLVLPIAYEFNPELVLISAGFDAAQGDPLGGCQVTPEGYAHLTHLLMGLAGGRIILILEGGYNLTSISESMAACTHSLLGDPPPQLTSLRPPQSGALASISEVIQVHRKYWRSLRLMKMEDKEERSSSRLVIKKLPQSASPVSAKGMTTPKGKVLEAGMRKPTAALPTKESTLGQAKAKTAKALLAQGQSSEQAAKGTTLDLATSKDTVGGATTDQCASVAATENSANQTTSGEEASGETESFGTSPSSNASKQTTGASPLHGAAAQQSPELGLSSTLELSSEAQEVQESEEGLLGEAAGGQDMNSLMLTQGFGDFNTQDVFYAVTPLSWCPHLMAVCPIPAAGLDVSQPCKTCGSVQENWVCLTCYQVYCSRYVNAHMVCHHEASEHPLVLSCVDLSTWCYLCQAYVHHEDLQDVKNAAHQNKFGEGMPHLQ
The experiment in a line: Autoradiography on Wistar rat brain tissue. As to conditions: rat brain slices, 100 μM. Format: binding. The procedure: as §1

Data set [4] in a line: Biodistribution and pharmacokinetics in healthy Balb/C mice. Format: in vivo. As to the method: (§2) Material and methods: [^18F]Amylovis® was synthesized by nucleophilic substitution of the tosyl group of the precursor. Thirty five healthy male Balb/C mice of 10-12 weeks were divided into […] of 5 animals each and injected with similar doses of [^18F]Amylovis® through a lateral tail vein. Blood samples were collected and the animals were sacrificed at 5, 15, 30, 45, 70 and 180 minutes. Organs of interest were removed and washed with saline. Radioactivity of blood, plasma, urine, faeces, brain, cerebellum, heart, liver, stomach, spleen, bowel, colon, left kidney, muscle, bone and tail was measured in a well counter. To assess protein binding, plasma samples were diluted with acetonitrile and centrifuged at 4000 g. Pellets of proteins and supernatants were separated and their radioactivity measured in a well counter. RadioTLC analysis of plasma were performed for the same purpose in silicagel 60 and mobile phase of acetonitrile/water (95/5). 20μL of each supernatant was analysed by HPLC-RP using a C18 column and acetonitrile/water (75/25) as mobile phase to identify plasma metabolites. Pharmacokinetic parameters (AUC, t1/2, Cmax, Cl, Vss) were calculated using non-compartmental analysis (NCA). Dynamic PET/CT images of healthy and transgenic APPSwe/PS1dE9 mice were acquired for 2.5 h after i.v. administration. […]

Data set [5] can be described thus: Plasma protein binding (acetonitrile precipitation, radioTLC). It is filed as in vitro ADME, mice. As to conditions: mouse plasma. The procedure:
as §2

For data set [6] the following is noted: healthy Balb/c mice n=5, i.v., 1h p.i.
Description: The biodistribution of such prepared 68Ga-PSMA-11 was investigated in healthy Balb/c mice (n=5) after intravenous injection of 0.1mL (38 MBq/mL) (at 15, 30, 60 and 120min).
A further data set has as its target T3, MC1R (Mus musculus, UniProt Q01727).
T3 construct: endogenous in cells; host or cells: B16/F10
The experiment in a line: MC1R binding affinity in B16/F10 melanoma cells. As to conditions: unlabelled peptides.

In the next data set the test system is AR42J and U87MG. The experiment in a line: Real-time binding and retention on tumor cells (Ligand Tracer). It is filed as cell-based.
The next data set relates to U87MG tumor. As to the method: Materials and Methods: The radiolabelling was performed using an automated system with inline quality control. Fraction of 68GaCl3 eluate from an organic matrix based 68Ge/68Ga generator, 400-700 MBq in 2 mL, was used to label NOTA/NODAGA/DOTA-derivatised cRGD peptides. Elution, labeling and purification procedures were performed in 20-25 min. The biodistribution was tested in tumor bearing animal models (U87MG, Walker 256, B21 and AR42J). The affinity of cyclo-RGD peptides to tumor cell-surface receptors was determined by real-time quantification using Ligand Tracer.

Another data set addresses GRP receptors (Homo sapiens, UniProt P30550). The data set can be described thus: GRP receptor affinity of PD-410. Format: binding. An excerpt: Introduction: The Gastrin Releasing Peptide (GRP) receptor has high expression on prostate cancer cells. Consequently, bombesin, a 14-amino acid peptide that binds with high affinity to GRP receptors, has been widely studied for the development of radiopeptides for application in prostate cancer imaging. To overcome some limitations of radiolabelled peptides, we developed a small molecule non-peptidic radiotracer targeting GRP receptors. […] The aim of the present study is to develop a non-peptidic fluorine-18 PET radioligand with antagonist properties, for visualization of GRP receptors.

Data set [7] in a line: PET/CT imaging in nude mice bearing U87MG xenograft tumor. It is filed as in vivo. As to conditions: mouse, 90 min post injection. As to the method: Materials and methods: The PET imaging properties of [^68Ga]FSC(succ-RGD)3 were studied in nude mice bearing M21 human melanoma xenografts and human glioblastoma U87MG xenograft tumor. A parallel PET imaging of ^68GaNODAGA-RGD in same mouse bearing U87MG xenograft tumor was performed as a comparison.

The nature of data set [8]: Extended single dose toxicity study in Sprague-Dawley rats. It is filed as in vivo.
How the values of data set [9] were obtained: Methods: Labelling was carried out in a remote controlled synthesis unit under clean room conditions. Quality control included TLC, HPLC, GC, pH control, Ge-breakthrough, half-life, endotoxin content, and control of sterility. Storage stability after 4 h was studied and dose estimations based on animal data were carried out using OLINDA. Sprague-Dawley rats were used for an extended single dose toxicity study. The phase I clinical study included 9 patients with hepatocellular carcinoma (HCC). Static scans at 5, 30, and 60 min p.i. including 5 bed positions each were performed using the Discovery 690 PET/CT. Blood was sampled 30 and 60 min p.i. and urine 60 min p.i. and used for stability studies via HPLC.

A word on the GI50: it is the concentration giving 50% growth inhibition. Broadly, the Ki is a measure of affinity in units of concentration, obtained from inhibition or displacement. Low values mean tighter binding, high ones weaker binding.

T3 sequence (Q01727 whole entry): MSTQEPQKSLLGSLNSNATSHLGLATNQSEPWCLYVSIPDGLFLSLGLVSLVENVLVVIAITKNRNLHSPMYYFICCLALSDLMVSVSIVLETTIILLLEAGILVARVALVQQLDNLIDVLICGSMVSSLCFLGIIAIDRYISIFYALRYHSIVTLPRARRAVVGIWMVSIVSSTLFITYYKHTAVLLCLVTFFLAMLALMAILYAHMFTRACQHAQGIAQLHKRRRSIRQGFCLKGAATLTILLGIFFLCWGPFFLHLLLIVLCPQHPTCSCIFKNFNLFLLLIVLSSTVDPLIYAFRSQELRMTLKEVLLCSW
Sequence of GRP receptors (P30550 whole entry): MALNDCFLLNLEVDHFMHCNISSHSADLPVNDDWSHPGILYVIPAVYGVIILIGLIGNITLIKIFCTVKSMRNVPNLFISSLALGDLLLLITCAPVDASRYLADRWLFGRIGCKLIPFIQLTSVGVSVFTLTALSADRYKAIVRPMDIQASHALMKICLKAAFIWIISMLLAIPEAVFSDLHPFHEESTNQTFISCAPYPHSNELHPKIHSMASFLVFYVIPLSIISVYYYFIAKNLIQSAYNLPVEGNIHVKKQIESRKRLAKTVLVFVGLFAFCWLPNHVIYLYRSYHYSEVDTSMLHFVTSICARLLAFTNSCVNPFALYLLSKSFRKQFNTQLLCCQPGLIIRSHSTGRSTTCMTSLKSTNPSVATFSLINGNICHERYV
Description for AR42J and U87MG: Materials and Methods: The radiolabelling was performed using an automated system with inline quality control. Fraction of 68GaCl3 eluate from an organic matrix based 68Ge/68Ga generator, 400-700 MBq in 2 mL, was used to label NOTA/NODAGA/DOTA-derivatised cRGD peptides. Elution, labeling and purification procedures were performed in 20-25 min. […] The affinity of cyclo-RGD peptides to tumor cell-surface receptors was determined by real-time quantification using Ligand Tracer.

For `COc1ccc(-c2nc3cc(F)ccc3s2)cc1OC` [PMX 610, 2-(3,4-dimethoxyphenyl)-5-fluorobenzothiazole], the concentration for 50% growth inhibition (GI50) in data set [1] is under 0.1 nM.

Turning to `O=C(CCCCCCC(=O)Nc1ccccc1)NO` [SAHA, Suberoylanilide hydroxamic acid], the “displacement of [11C]KB631 binding, LNCaP” value on HDAC6 [2] (LNCaP tumor slices) amounted to 59%. The “displacement of [11C]KB631 binding, PC3” value on HDAC6 [2] (PC3 tumor slices) was determined as 39%. Further, on HDAC6 [3], the “displacement of [11C]KB631 binding, brain” value was found to be 73%.

Consider `COc1ccc2cc(CCC[18F])ccc2c1` [[18F]Amylovis®, [^18F]-2-(3-fluoropropyl)-6-methoxynaphtalene], for which the “Plasma T1/2” value in data set [4] (Balb/C mice, i.v., non-compartmental analysis) was 37 min. Besides, the “blood brain barrier crossing” value in data set [4] (mice) is reported as “crossed blood brain barrier”. The protein binding result in data set [5] was “No significant protein binding”.

In [6], `O=C(O)CCc1ccc(O)c(CN(CCN(CC(=O)O)Cc2cc(CCC(=O)NCCCCCC(=O)NCCCC[C@H](NC(=O)N[C@@H](CCC(=O)O)C(=O)O)C(=O)O)ccc2O)CC(=O)O)c1` [68Ga-PSMA-11, Glu-CO-Lys(Ahx)-HBED-CC, metal not drawn] displayed a urine elimination of over 70%.

At MC1R, `CC(C)[C@H](NC(=O)[C@@H]1CCCN1C(=O)[C@H](CCCNC(=N)N)NC(=O)[C@@H]1CCC(=O)NCCCC[C@H](NC(=O)CCNC(=O)CCCCCNC(=O)[C@@H](N)CS)C(=O)N[C@@H](CCC(=O)O)C(=O)N[C@@H](Cc2c[nH]cn2)C(=O)N[C@H](Cc2ccccc2)C(=O)N[C@@H](CCCNC(=N)N)C(=O)N[C@@H](Cc2c[nH]c3ccccc23)C(=O)N1)C(N)=O` [NAP_NS2, H-Cys-Ahx-βAla^3-c[Lys^4-Glu-His-D-Phe-Arg-Trp-Glu^10]-Arg^11-Pro-Val-NH2] (H-C[Ahx][βAla]KEH[dF]RWERPV-NH2; lactam 4-10) registered a Ki of 7.1 ± 2.4 nM.

“DOTA-E-[c(RGDfK)2] (head to tail) [68Ga-DOTA-E-[c(RGDfK)2]]”: the “retention, from activity in the cells” value in the data set on AR42J and U87MG was “up to 58%”. Besides, the tumor uptake entry with U87MG tumor is “Up to 5.3 % ID/g”.

In turn, `C[C@@](Cc1c[nH]c2ccccc12)(NC(=O)Nc1ccc([N+](=O)[O-])cc1)C(=O)NCC1(c2ccc(OCCF)cn2)CCCCC1` [PD-410, (S)-3-(1H-indol-3-yl)-N-[1-[5-(2-fluoroethoxy)pyridin-2-yl]cyclohexylmethyl]-2-methyl-2-[3-(4-nitrophenyl)ureido]propionamide] yielded a Ki on GRP receptors of 38 ± 2 nM.

As for `N=C(N)NCCC[C@@H]1NC(=O)[C@H](CCCCNC(=O)CCC(C(=O)O)N2CCN(CC(=O)O)CCN(CC(=O)O)CC2)NC(=O)[C@@H](Cc2ccccc2)NC(=O)[C@H](CC(=O)O)NC(=O)CNC1=O` (stereo partly drawn) [[68Ga]NODAGA-RGD, metal not drawn], the tissue to tissue ratio at […] in data set [7] (tumour and kidneys, read-out: tumor/kidneys ratio) is 1.6; in data set [7] (tumour and muscle, read-out: tumor/muscle ratio) it was 5. Besides, in data set [8], the “tolerability in single dose toxicity study” value was “well tolerated in animals”. Besides, the “side effects in clinical study” value in data set [9] (9 patients with HCC) was “no severe side effects were observed”. Moreover, the calculated effective dose in [9] (human, in vivo) is 21.5±5.4 μSv/MBq. The metabolic stability result in [9] (patient blood (30, 60 min p.i.) and urine (60 min p.i.), HPLC) was “High metabolic stability”.
